Species: Rattus norvegicus
Experiment: Open TG-GATES - Regimen: Daily Repeat
Format: toxicity, organism-based, Sprague-Dawley
Set-up: regimen Daily Repeat, gender Male, age 6 weeks
Settings: in vivo, po, route gavage; for APTT / Bas / Eos / Fbg / Hb / Ht / Lym / MCH / MCHC / MCV / Mono / Neu / PT / Plat / RBC / Ret / WBC: tissue Blood; for KIDNEY_L / KIDNEY_R / KIDNEY_TOTAL: tissue Kidney; for LIVER: tissue Liver; for A/G / ALP / ALT / AST / BUN / CRE / Ca / Cl / DBIL / GLC / IP / K / LDH / Na / PL / RALB / TBIL / TC / TG / TP / gamma-GTP: tissue Plasma
[1] = 10 mg/kg, 72 h, dose level Middle, time 3 day
[2] = 10 mg/kg, […], dose level Middle, time 7 day
[3] = 10 mg/kg, […], dose level Middle, time 14 day
[4] = 10 mg/kg, […], dose level Middle, time 28 day
[5] = 30 mg/kg, 72 h, dose level High, time 3 day
[6] = 30 mg/kg, […], dose level High, time 7 day
[7] = 30 mg/kg, […], dose level High, time 14 day
[8] = 30 mg/kg, […], dose level High, time 28 day

## CN(C)CCC(c1ccc(Cl)cc1)c1ccccn1 (centres undefined) [CHLORPHENIRAMINE]
[1]
  TERMINAL_BW: 226.7 g
  APTT: 18.1 s
  Bas: 0%
  Eos: 1.2%
  Fbg: 297.4 mg/dL
  Hb: 13.1 g/dL
  Ht: 40.4%
  Lym: 77.4%
  MCH: 20.7 pg
  MCHC: 32.3%
  MCV: 63.9 fL
  Mono: 2.6%
  Neu: 18.6%
  PT: 14.8 s
  Plat: 123.1 x10_4/uL
  RBC: 631.8 x10_4/ul
  Ret: 6.1%
  WBC: 88.3 x10_2/uL
  KIDNEY_L: 1 g
  KIDNEY_R: 0.9 g
  KIDNEY_TOTAL: 1.9 g
  LIVER: 10.2 g
  A/G: 0.9
  ALP: 1653.8 IU/L
  ALT: 38.8 IU/L
  AST: 67.8 IU/L
  BUN: 14.4 mg/dL
  CRE: 0.2 mg/dL
  Ca: 10.4 mg/dL
  Cl: 107.2 meq/L
  DBIL: 0.016 mg/dL
  GLC: 184.6 mg/dL
  IP: 7.4 mg/dL
  K: 4.5 meq/L
  LDH: 94.6 IU/L
  Na: 141.6 meq/L
  PL: 147.8 mg/dL
  RALB: 2.6 g/dL
  TBIL: 0.038 mg/dL
  TC: 82 mg/dL
  TG: 76.2 mg/dL
  TP: 5.6 g/dL
  gamma-GTP: 1.4 IU/L
[2]
  TERMINAL_BW: 266.4 g
  APTT: 22.1 s
  Bas: 0%
  Eos: 0.8%
  Fbg: 297.2 mg/dL
  Hb: 13.6 g/dL
  Ht: 41%
  Lym: 77%
  MCH: 20.8 pg
  MCHC: 33%
  MCV: 63.1 fL
  Mono: 2.2%
  Neu: 19.2%
  PT: 14.1 s
  Plat: 110 x10_4/uL
  RBC: 650.4 x10_4/ul
  Ret: 5.7%
  WBC: 82.7 x10_2/uL
  KIDNEY_L: 1.1 g
  KIDNEY_R: 1.1 g
  KIDNEY_TOTAL: 2.2 g
  LIVER: 12.1 g
  A/G: 0.8
  ALP: 1451.2 IU/L
  ALT: 40.6 IU/L
  AST: 64.4 IU/L
  BUN: 15.8 mg/dL
  CRE: 0.2 mg/dL
  Ca: 11.4 mg/dL
  Cl: 105.8 meq/L
  DBIL: 0.012 mg/dL
  GLC: 194.4 mg/dL
  IP: 7.6 mg/dL
  K: 4.2 meq/L
  LDH: 96.6 IU/L
  Na: 142.6 meq/L
  PL: 158.4 mg/dL
  RALB: 2.6 g/dL
  TBIL: 0.028 mg/dL
  TC: 84.8 mg/dL
  TG: 98 mg/dL
  TP: 5.8 g/dL
  gamma-GTP: 1 IU/L
[3]
  TERMINAL_BW: 329 g
  APTT: 16.1 s
  Bas: 0.2%
  Eos: 0.4%
  Fbg: 365 mg/dL
  Hb: 14 g/dL
  Ht: 42.2%
  Lym: 73.6%
  MCH: 20.3 pg
  MCHC: 33.1%
  MCV: 61.3 fL
  Mono: 3.4%
  Neu: 19.8%
  PT: 14.4 s
  Plat: 118 x10_4/uL
  RBC: 687.8 x10_4/ul
  Ret: 4.6%
  WBC: 91.1 x10_2/uL
  KIDNEY_L: 1.3 g
  KIDNEY_R: 1.2 g
  KIDNEY_TOTAL: 2.5 g
  LIVER: 14.6 g
  A/G: 0.8
  ALP: 1493.6 IU/L
  ALT: 41.6 IU/L
  AST: 64 IU/L
  BUN: 15.8 mg/dL
  CRE: 0.2 mg/dL
  Ca: 11.2 mg/dL
  Cl: 105.4 meq/L
  DBIL: 0.016 mg/dL
  GLC: 199.6 mg/dL
  IP: 7.8 mg/dL
  K: 4 meq/L
  LDH: 103 IU/L
  Na: 144 meq/L
  PL: 152.2 mg/dL
  RALB: 2.8 g/dL
  TBIL: 0.034 mg/dL
  TC: 78.2 mg/dL
  TG: 116.2 mg/dL
  TP: 6 g/dL
  gamma-GTP: 1 IU/L
[4]
  TERMINAL_BW: 411.3 g
  APTT: 18.2 s
  Bas: 0%
  Eos: 1%
  Fbg: 267.8 mg/dL
  Hb: 15.2 g/dL
  Ht: 45.1%
  Lym: 78.8%
  MCH: 18.9 pg
  MCHC: 33.8%
  MCV: 56 fL
  Mono: 2.2%
  Neu: 17.4%
  PT: 15.2 s
  Plat: 106.7 x10_4/uL
  RBC: 806.2 x10_4/ul
  Ret: 2.2%
  WBC: 92.2 x10_2/uL
  KIDNEY_L: 1.5 g
  KIDNEY_R: 1.4 g
  KIDNEY_TOTAL: 2.9 g
  LIVER: 16.2 g
  A/G: 0.8
  ALP: 1476.8 IU/L
  ALT: 39 IU/L
  AST: 67 IU/L
  BUN: 16.8 mg/dL
  CRE: 0.2 mg/dL
  Ca: 10.5 mg/dL
  Cl: 107.2 meq/L
  DBIL: 0.016 mg/dL
  GLC: 193.4 mg/dL
  IP: 6.2 mg/dL
  K: 4.1 meq/L
  LDH: 87.2 IU/L
  Na: 144.2 meq/L
  PL: 141 mg/dL
  RALB: 2.7 g/dL
  TBIL: 0.03 mg/dL
  TC: 65.6 mg/dL
  TG: 136.6 mg/dL
  TP: 6 g/dL
  gamma-GTP: 1 IU/L
[5]
  TERMINAL_BW: 205.8 g
  APTT: 18.2 s
  Bas: 0.4%
  Eos: 1%
  Fbg: 272.2 mg/dL
  Hb: 14.3 g/dL
  Ht: 43.8%
  Lym: 78.6%
  MCH: 20.4 pg
  MCHC: 32.5%
  MCV: 62.5 fL
  Mono: 3.2%
  Neu: 15.8%
  PT: 15.3 s
  Plat: 124 x10_4/uL
  RBC: 701 x10_4/ul
  Ret: 3.4%
  WBC: 91.9 x10_2/uL
  KIDNEY_L: 1 g
  KIDNEY_R: 0.9 g
  KIDNEY_TOTAL: 1.9 g
  LIVER: 8.8 g
  A/G: 0.9
  ALP: 1539.6 IU/L
  ALT: 38 IU/L
  AST: 67.2 IU/L
  BUN: 14.8 mg/dL
  CRE: 0.2 mg/dL
  Ca: 10.3 mg/dL
  Cl: 108.8 meq/L
  DBIL: 0.012 mg/dL
  GLC: 182.6 mg/dL
  IP: 7.5 mg/dL
  K: 4.5 meq/L
  LDH: 95.6 IU/L
  Na: 142.2 meq/L
  PL: 133 mg/dL
  RALB: 2.6 g/dL
  TBIL: 0.038 mg/dL
  TC: 74.6 mg/dL
  TG: 62.6 mg/dL
  TP: 5.5 g/dL
  gamma-GTP: 1.2 IU/L
[6]
  TERMINAL_BW: 242.7 g
  APTT: 19.1 s
  Bas: 0.4%
  Eos: 1%
  Fbg: 302.6 mg/dL
  Hb: 13.6 g/dL
  Ht: 40.9%
  Lym: 74%
  MCH: 20.5 pg
  MCHC: 33.3%
  MCV: 61.4 fL
  Mono: 3.2%
  Neu: 21.2%
  PT: 13.9 s
  Plat: 119 x10_4/uL
  RBC: 665.2 x10_4/ul
  Ret: 3.6%
  WBC: 121.3 x10_2/uL
  KIDNEY_L: 1 g
  KIDNEY_R: 1 g
  KIDNEY_TOTAL: 2 g
  LIVER: 10.9 g
  A/G: 0.8
  ALP: 1512.4 IU/L
  ALT: 40.6 IU/L
  AST: 65 IU/L
  BUN: 16 mg/dL
  CRE: 0.2 mg/dL
  Ca: 11.3 mg/dL
  Cl: 106.2 meq/L
  DBIL: 0.012 mg/dL
  GLC: 185.6 mg/dL
  IP: 7.6 mg/dL
  K: 4.4 meq/L
  LDH: 112.2 IU/L
  Na: 141.6 meq/L
  PL: 163.6 mg/dL
  RALB: 2.6 g/dL
  TBIL: 0.028 mg/dL
  TC: 86.4 mg/dL
  TG: 117 mg/dL
  TP: 5.8 g/dL
  gamma-GTP: 1 IU/L
[7]
  TERMINAL_BW: 294.5 g
  APTT: 17.1 s
  Bas: 0.2%
  Eos: 0.8%
  Fbg: 282 mg/dL
  Hb: 14.1 g/dL
  Ht: 42.4%
  Lym: 79.2%
  MCH: 19.9 pg
  MCHC: 33.4%
  MCV: 59.7 fL
  Mono: 2.6%
  Neu: 16.4%
  PT: 14.3 s
  Plat: 113.7 x10_4/uL
  RBC: 709 x10_4/ul
  Ret: 4.6%
  WBC: 93.8 x10_2/uL
  KIDNEY_L: 1.1 g
  KIDNEY_R: 1.1 g
  KIDNEY_TOTAL: 2.3 g
  LIVER: 12.6 g
  A/G: 0.8
  ALP: 1415.4 IU/L
  ALT: 32.8 IU/L
  AST: 57.8 IU/L
  BUN: 15.4 mg/dL
  CRE: 0.2 mg/dL
  Ca: 11.1 mg/dL
  Cl: 105.8 meq/L
  DBIL: 0.012 mg/dL
  GLC: 190.6 mg/dL
  IP: 7.6 mg/dL
  K: 4.6 meq/L
  LDH: 122.4 IU/L
  Na: 141.8 meq/L
  PL: 155.8 mg/dL
  RALB: 2.8 g/dL
  TBIL: 0.03 mg/dL
  TC: 82.4 mg/dL
  TG: 121 mg/dL
  TP: 6 g/dL
  gamma-GTP: 1 IU/L
[8]
  TERMINAL_BW: 368.6 g
  APTT: 20.7 s
  Bas: 0%
  Eos: 0.8%
  Fbg: 290.6 mg/dL
  Hb: 15.8 g/dL
  Ht: 46.8%
  Lym: 80.6%
  MCH: 19 pg
  MCHC: 33.8%
  MCV: 56.2 fL
  Mono: 2.6%
  Neu: 14.8%
  PT: 15.1 s
  Plat: 110.6 x10_4/uL
  RBC: 834 x10_4/ul
  Ret: 2.2%
  WBC: 98.8 x10_2/uL
  KIDNEY_L: 1.5 g
  KIDNEY_R: 1.4 g
  KIDNEY_TOTAL: 2.9 g
  LIVER: 15.6 g
  A/G: 0.8
  ALP: 1092.6 IU/L
  ALT: 34 IU/L
  AST: 54.6 IU/L
  BUN: 16 mg/dL
  CRE: 0.2 mg/dL
  Ca: 10.7 mg/dL
  Cl: 105.6 meq/L
  DBIL: 0.014 mg/dL
  GLC: 184 mg/dL
  IP: 7.1 mg/dL
  K: 4.4 meq/L
  LDH: 92.8 IU/L
  Na: 144.2 meq/L
  PL: 150.2 mg/dL
  RALB: 2.8 g/dL
  TBIL: 0.03 mg/dL
  TC: 75.2 mg/dL
  TG: 148 mg/dL
  TP: 6.2 g/dL
  gamma-GTP: 1.2 IU/L

Reference: ChEMBL document CHEMBL3885861, “Open TG-GATES”
